Our source for the IC50 and Activity values is ChEMBL document CHEMBL1143150, “Design of azidoproline containing gluten peptides to suppress CD4+ T-cell responses associated with celiac disease” (Bioorg Med Chem, 2008).

SMILES strings stand for the structures. Activity calls are given as the source filed them. No cut-off for these calls is given here. Numbered stars: 1 amine (or outer) side, 2 acyl side, 3 side chain; on linkers, the order of the positions; unused ones are H or OH. Square brackets hold non-standard residues; d marks the D form. Side chains are listed from the residue outwards. Peptide text beside a SMILES is read from it. * marks the point of attachment. X3 = O=C([C@@H]1C[C@@H](n2cc(C(=O)[*:3])nn2)CN1[*:1])[*:2]; X1 = O=C([C@@H]1C[C@H](n2cc(C(=O)[*:3])nn2)CN1[*:1])[*:2]; X5 = CNC(=O)c1cn([C@@H]2C[C@@H](C(=O)[*:2])N([*:1])C2)nn1; X6 = CNC(=O)c1cn([C@H]2C[C@@H](C(=O)[*:2])N([*:1])C2)nn1; X4 = [N-]=[N+]=N[C@@H]1C[C@@H](C(=O)[*:2])N([*:1])C1; Pro(cis-4-N3) = [N-]=[N+]=N[C@@H]1CN[C@H](C(=O)O)C1; pGlu = O=C1CC[C@@H](C(=O)O)N1; X2 = NC(=O)CCCC(=O)*

Test system in the first assay: not listed separately
The assay can be described thus: Binding affinity to HLA-DQ2 expressed in EBV-transformed B cells. It is filed as cell-based.
Conditions: not given
One may read the IC50 as the concentration needed to halve the response being measured. For the compound `CC(C)C[C@H](NC(=O)CCCC(N)=O)C(=O)N[C@@H](CCC(N)=O)C(=O)N1CCC[C@H]1C(=O)N[C@@H](Cc1ccccc1)C(=O)N1C[C@@H](N=[N+]=[N-])C[C@H]1C(=O)N[C@@H](CCC(N)=O)C(=O)N1CCC[C@H]1C(=O)N[C@@H](CCC(=O)O)C(=O)N[C@@H](CC(C)C)C(=O)N1CCC[C@H]1C(=O)N[C@@H](Cc1ccc(O)cc1)C(=O)N1CCC[C@H]1C(=O)N[C@@H](CCC(N)=O)C(=O)O` (X2-LQPF[Pro(cis-4-N3)]QPELPYPQ-OH), the half-inhibitory concentration (IC50) worked out at 7.2 µM.

`CC(C)C[C@H](NC(=O)[C@H](CCC(N)=O)NC(=O)[C@@H](N)CC(C)C)C(=O)N[C@@H](CCC(N)=O)C(=O)N1CCC[C@H]1C(=O)N[C@@H](Cc1ccccc1)C(=O)N1C[C@@H](N=[N+]=[N-])C[C@H]1C(=O)N[C@@H](CCC(N)=O)C(=O)N1CCC[C@H]1C(=O)N[C@@H](CCC(=O)O)C(=O)N[C@@H](CC(C)C)C(=O)N1CCC[C@H]1C(=O)N[C@@H](Cc1ccc(O)cc1)C(=O)N1CCC[C@H]1C(=O)N[C@@H](CCC(N)=O)C(=O)O`: the IC50 came to 8.6 µM.

As to `CC(C)C[C@H](NC(=O)[C@H](CCC(=O)O)NC(=O)[C@@H]1CCCN1C(=O)[C@H](CCC(N)=O)NC(=O)[C@@H]1C[C@H](N=[N+]=[N-])CN1C(=O)[C@H](Cc1ccccc1)NC(=O)[C@@H]1CCCN1C(=O)[C@H](CCC(N)=O)NC(=O)[C@@H](N)CC(C)C)C(=O)N1CCC[C@H]1C(=O)N[C@@H](Cc1ccc(O)cc1)C(=O)N1CCC[C@H]1C(=O)N[C@@H](CCC(N)=O)C(=O)O` (H-LQPF[Pro(cis-4-N3)]QPELPYPQ-OH), the IC50 worked out at 6.9 µM. Same read-out and setting: the figure for `CC(C)C[C@H](NC(=O)[C@@H](N)CCC(N)=O)C(=O)N[C@@H](CCC(N)=O)C(=O)N1CCC[C@H]1C(=O)N[C@@H](Cc1ccccc1)C(=O)N1C[C@@H](N=[N+]=[N-])C[C@H]1C(=O)N[C@@H](CCC(N)=O)C(=O)N1CCC[C@H]1C(=O)N[C@@H](CCC(=O)O)C(=O)N[C@@H](CC(C)C)C(=O)N1CCC[C@H]1C(=O)N[C@@H](Cc1ccc(O)cc1)C(=O)N1CCC[C@H]1C(=O)N[C@@H](CCC(N)=O)C(=O)O` (H-QLQPF[Pro(cis-4-N3)]QPELPYPQ-OH) is 10.7 µM; for `CC(C)C[C@H](NC(=O)CN)C(=O)N[C@@H](CCC(N)=O)C(=O)N1CCC[C@H]1C(=O)N[C@@H](Cc1ccccc1)C(=O)N1C[C@@H](N=[N+]=[N-])C[C@H]1C(=O)N[C@@H](CCC(N)=O)C(=O)N1CCC[C@H]1C(=O)N[C@@H](CCC(=O)O)C(=O)N[C@@H](CC(C)C)C(=O)N1CCC[C@H]1C(=O)N[C@@H](Cc1ccc(O)cc1)C(=O)N1CCC[C@H]1C(=O)N[C@@H](CCC(N)=O)C(=O)O` (H-GLQPF[Pro(cis-4-N3)]QPELPYPQ-OH) it is 9.4 µM; for `CC(C)C[C@H](NC(=O)[C@@H](N)CCC(N)=O)C(=O)N[C@@H](CCC(N)=O)C(=O)N1CCC[C@H]1C(=O)N[C@@H](Cc1ccccc1)C(=O)N1CCC[C@H]1C(=O)N[C@@H](CCC(N)=O)C(=O)N1CCC[C@H]1C(=O)N[C@@H](CCC(=O)O)C(=O)N[C@@H](CC(C)C)C(=O)N1CCC[C@H]1C(=O)N[C@@H](Cc1ccc(O)cc1)C(=O)O` (H-QLQPFPQPELPY-OH) it is 17.2 µM.

The same assay, now with this note: read-out: IC50.
Regarding `CC(C)C[C@H](NC(=O)[C@@H]1CCC(=O)N1)C(=O)N[C@@H](CCC(N)=O)C(=O)N1CCC[C@H]1C(=O)N[C@@H](Cc1ccccc1)C(=O)N1C[C@H](N=[N+]=[N-])C[C@H]1C(=O)N[C@@H](CCC(N)=O)C(=O)N1CCC[C@H]1C(=O)N[C@@H](CCC(=O)O)C(=O)N[C@@H](CC(C)C)C(=O)N1CCC[C@H]1C(=O)N[C@@H](Cc1ccc(O)cc1)C(=O)N1CCC[C@H]1C(=O)N[C@@H](CCC(N)=O)C(=O)O` ([pGlu]LQPF[X4]QPELPYPQ-OH), the IC50 was determined as 5.5 µM.

On to `CC(C)C[C@H](NC(=O)[C@@H]1CCC(=O)N1)C(=O)N[C@@H](CCC(N)=O)C(=O)N1CCC[C@H]1C(=O)N[C@@H](Cc1ccccc1)C(=O)N1C[C@@H](N=[N+]=[N-])C[C@H]1C(=O)N[C@@H](CCC(N)=O)C(=O)N1CCC[C@H]1C(=O)N[C@@H](CCC(=O)O)C(=O)N[C@@H](CC(C)C)C(=O)N1CCC[C@H]1C(=O)N[C@@H](Cc1ccc(O)cc1)C(=O)N1CCC[C@H]1C(=O)N[C@@H](CCC(N)=O)C(=O)O` ([pGlu]LQPF[Pro(cis-4-N3)]QPELPYPQ-OH), for which the IC50 is 3.2 µM. Consider `COC(=O)[C@H](Cc1ccccc1)NC(=O)c1cn([C@@H]2C[C@@H](C(=O)N[C@@H](CCC(=O)O)C(=O)N[C@@H](CC(C)C)C(=O)N3CCC[C@H]3C(=O)N[C@@H](Cc3ccc(O)cc3)C(=O)N3CCC[C@H]3C(=O)N[C@@H](CCC(N)=O)C(=O)O)N(C(=O)[C@H](CCC(N)=O)NC(=O)[C@@H]3CCCN3C(=O)[C@H](Cc3ccccc3)NC(=O)[C@@H]3CCCN3C(=O)[C@H](CCC(N)=O)NC(=O)[C@H](CC(C)C)NC(=O)[C@@H]3CCC(=O)N3)C2)nn1` ([pGlu]LQPFPQ[X3]([Phe-OMe])ELPYPQ-OH), for which the IC50 was found to be 3.2 µM. As for `COC(=O)[C@H](Cc1ccccc1)NC(=O)c1cn([C@H]2C[C@@H](C(=O)N[C@@H](CCC(N)=O)C(=O)N3CCC[C@H]3C(=O)N[C@@H](CCC(=O)O)C(=O)N[C@@H](CC(C)C)C(=O)N3CCC[C@H]3C(=O)N[C@@H](Cc3ccc(O)cc3)C(=O)N3CCC[C@H]3C(=O)N[C@@H](CCC(N)=O)C(=O)O)N(C(=O)[C@H](Cc3ccccc3)NC(=O)[C@@H]3CCCN3C(=O)[C@H](CCC(N)=O)NC(=O)[C@H](CC(C)C)NC(=O)[C@@H]3CCC(=O)N3)C2)nn1` ([pGlu]LQPF[X1]([Phe-OMe])QPELPYPQ-OH), the IC50 came out at 1.3 µM. Still for that read-out and setting: to `CNC(=O)c1cn([C@@H]2C[C@@H](C(=O)N[C@@H](CCC(N)=O)C(=O)N3CCC[C@H]3C(=O)N[C@@H](CCC(=O)O)C(=O)N[C@@H](CC(C)C)C(=O)N3CCC[C@H]3C(=O)N[C@@H](Cc3ccc(O)cc3)C(=O)N3CCC[C@H]3C(=O)N[C@@H](CCC(N)=O)C(=O)O)N(C(=O)[C@H](Cc3ccccc3)NC(=O)[C@@H]3CCCN3C(=O)[C@H](CCC(N)=O)NC(=O)[C@H](CC(C)C)NC(=O)[C@@H]3CCC(=O)N3)C2)nn1` ([pGlu]LQPF[X5]QPELPYPQ-OH) belongs 5.8 µM; to `CNC(=O)c1cn([C@H]2C[C@@H](C(=O)N[C@@H](CCC(=O)O)C(=O)N[C@@H](CC(C)C)C(=O)N3CCC[C@H]3C(=O)N[C@@H](Cc3ccc(O)cc3)C(=O)N3CCC[C@H]3C(=O)N[C@@H](CCC(N)=O)C(=O)O)N(C(=O)[C@H](CCC(N)=O)NC(=O)[C@@H]3CCCN3C(=O)[C@H](Cc3ccccc3)NC(=O)[C@@H]3CCCN3C(=O)[C@H](CCC(N)=O)NC(=O)[C@H](CC(C)C)NC(=O)[C@@H]3CCC(=O)N3)C2)nn1` ([pGlu]LQPFPQ[X6]ELPYPQ-OH), 9 µM.

With `COC(=O)[C@H](Cc1ccccc1)NC(=O)c1cn([C@H]2C[C@@H](C(=O)N[C@@H](CCC(=O)O)C(=O)N[C@@H](CC(C)C)C(=O)N3CCC[C@H]3C(=O)N[C@@H](Cc3ccc(O)cc3)C(=O)N3CCC[C@H]3C(=O)N[C@@H](CCC(N)=O)C(=O)O)N(C(=O)[C@H](CCC(N)=O)NC(=O)[C@@H]3CCCN3C(=O)[C@H](Cc3ccccc3)NC(=O)[C@@H]3CCCN3C(=O)[C@H](CCC(N)=O)NC(=O)[C@H](CC(C)C)NC(=O)[C@@H]3CCC(=O)N3)C2)nn1` ([pGlu]LQPFPQ[X1]([Phe-OMe])ELPYPQ-OH), the IC50 stood at 2.3 µM. On to `CNC(=O)c1cn([C@@H]2C[C@@H](C(=O)N[C@@H](CCC(=O)O)C(=O)N[C@@H](CC(C)C)C(=O)N3CCC[C@H]3C(=O)N[C@@H](Cc3ccc(O)cc3)C(=O)N3CCC[C@H]3C(=O)N[C@@H](CCC(N)=O)C(=O)O)N(C(=O)[C@H](CCC(N)=O)NC(=O)[C@@H]3CCCN3C(=O)[C@H](Cc3ccccc3)NC(=O)[C@@H]3CCCN3C(=O)[C@H](CCC(N)=O)NC(=O)[C@H](CC(C)C)NC(=O)[C@@H]3CCC(=O)N3)C2)nn1` ([pGlu]LQPFPQ[X5]ELPYPQ-OH), for which the IC50 stood at 5.8 µM. For `CC(C)C[C@H](NC(=O)[C@@H]1CCC(=O)N1)C(=O)N[C@@H](CCC(N)=O)C(=O)N1CCC[C@H]1C(=O)N[C@@H](Cc1ccccc1)C(=O)N1CCC[C@H]1C(=O)N[C@@H](CCC(N)=O)C(=O)N1C[C@H](N=[N+]=[N-])C[C@H]1C(=O)N[C@@H](CCC(=O)O)C(=O)N[C@@H](CC(C)C)C(=O)N1CCC[C@H]1C(=O)N[C@@H](Cc1ccc(O)cc1)C(=O)N1CCC[C@H]1C(=O)N[C@@H](CCC(N)=O)C(=O)O` ([pGlu]LQPFPQ[X4]ELPYPQ-OH), the IC50 was 2.3 µM.

Consider `CC(C)C[C@H](NC(=O)[C@@H]1CCC(=O)N1)C(=O)N[C@@H](CCC(N)=O)C(=O)N1CCC[C@H]1C(=O)N[C@@H](Cc1ccccc1)C(=O)N1CCC[C@H]1C(=O)N[C@@H](CCC(N)=O)C(=O)N1C[C@@H](N=[N+]=[N-])C[C@H]1C(=O)N[C@@H](CCC(=O)O)C(=O)N[C@@H](CC(C)C)C(=O)N1CCC[C@H]1C(=O)N[C@@H](Cc1ccc(O)cc1)C(=O)N1CCC[C@H]1C(=O)N[C@@H](CCC(N)=O)C(=O)O` ([pGlu]LQPFPQ[Pro(cis-4-N3)]ELPYPQ-OH), for which the IC50 stood at 2.4 µM. As for `CNC(=O)c1cn([C@H]2C[C@@H](C(=O)N[C@@H](CCC(N)=O)C(=O)N3CCC[C@H]3C(=O)N[C@@H](CCC(=O)O)C(=O)N[C@@H](CC(C)C)C(=O)N3CCC[C@H]3C(=O)N[C@@H](Cc3ccc(O)cc3)C(=O)N3CCC[C@H]3C(=O)N[C@@H](CCC(N)=O)C(=O)O)N(C(=O)[C@H](Cc3ccccc3)NC(=O)[C@@H]3CCCN3C(=O)[C@H](CCC(N)=O)NC(=O)[C@H](CC(C)C)NC(=O)[C@@H]3CCC(=O)N3)C2)nn1` ([pGlu]LQPF[X6]QPELPYPQ-OH), the IC50 is 4.6 µM. Still for that read-out and setting: the figure for `COC(=O)[C@H](Cc1ccccc1)NC(=O)c1cn([C@@H]2C[C@@H](C(=O)N[C@@H](CCC(N)=O)C(=O)N3CCC[C@H]3C(=O)N[C@@H](CCC(=O)O)C(=O)N[C@@H](CC(C)C)C(=O)N3CCC[C@H]3C(=O)N[C@@H](Cc3ccc(O)cc3)C(=O)N3CCC[C@H]3C(=O)N[C@@H](CCC(N)=O)C(=O)O)N(C(=O)[C@H](Cc3ccccc3)NC(=O)[C@@H]3CCCN3C(=O)[C@H](CCC(N)=O)NC(=O)[C@H](CC(C)C)NC(=O)[C@@H]3CCC(=O)N3)C2)nn1` ([pGlu]LQPF[X3]([Phe-OMe])QPELPYPQ-OH) is 29.2 µM.

The test system of the next assay is T-cell. The assay can be described thus: Blockade of HLA-DQ2 specific human CD4+ T cell proliferation in presence of alpha-9-gluten peptide after 48 hrs.
Conditions: not given
Format: functional, cell-based.
On to `COC(=O)[C@H](Cc1ccccc1)NC(=O)c1cn([C@H]2C[C@@H](C(=O)N[C@@H](CCC(N)=O)C(=O)N3CCC[C@H]3C(=O)N[C@@H](CCC(=O)O)C(=O)N[C@@H](CC(C)C)C(=O)N3CCC[C@H]3C(=O)N[C@@H](Cc3ccc(O)cc3)C(=O)N3CCC[C@H]3C(=O)N[C@@H](CCC(N)=O)C(=O)O)N(C(=O)[C@H](Cc3ccccc3)NC(=O)[C@@H]3CCCN3C(=O)[C@H](CCC(N)=O)NC(=O)[C@H](CC(C)C)NC(=O)[C@@H]3CCC(=O)N3)C2)nn1` ([pGlu]LQPF[X1]([Phe-OMe])QPELPYPQ-OH), for which the outcome was Active.
